Where two headings read alike, the source gives them in different places.
Assays:
PI3K δ = PI3K δ (Homo sapiens (Human), UniProt O00329); experiment: PI3K δ kinase assay; type: biochemical
mTORC = mTORC (Homo sapiens (Human), UniProt P42345); experiment: mTORC in vitro IC50 (Table 2); type: biochemical
Protocol: The compounds described herein and any other mTor inhibitors known in the art can be tested against recombinant mTOR (Invitrogen) in an assay containing 50 mM HEPES, pH 7.5, 1 mM EGTA, 10 mM MgCl2, 2.5 mM, 0.01% Tween, 10 μM ATP (2.5 μCi of μ-32P-ATP), and 3 μg/mL BSA. Rat recombinant PHAS-1/4EBP1 (Calbiochem; 2 mg/mL) is used as a substrate. Reactions are terminated by spotting onto nitrocellulose, which is washed with 1M NaCl/1% phosphoric acid (approximately 6 times, 5-10 minutes each). Sheets are dried and the transferred radioactivity quantitated by phosphorimaging.
For instance, one can use Invitrogen's LanthaScreen™ Kinase assay to test the inhibitors of mTOR disclosed herein. This assay is a time resolved FRET platform that measures the phosphorylation of GFP labeled 4EBP1 by mTOR kinase. The kinase reaction is performed in a white 384 well microtitre plate. The total reaction volume is 20 ul per well and the reaction buffer composition is 50 mM HEPES pH7.5, 0.01% Polysorbate 20, 1 mM EGTA, 10 mM MnCl2, and 2 mM DTT. In the first step, each well receives 2 ul of test compound in 20% dimethylsulphoxide resulting in a 2% DMSO final concentration. Next, 8 ul of mTOR diluted in reaction buffer is added per well for a 60 ng/ml final concentration. To start the reaction, 10 ul of an ATP/GFP-4EBP1 mixture (diluted in reaction buffer) is added per well for a final concentration of 10 μM ATP and 0.5 μM GFP-4EBP1. The plate is sealed and incubated for 1 hour at room temperature. […] The plate is sealed, incubated for 1 hour at room temperature, and then read on a plate reader set up for LanthaScreen™ TR-FRET. Data is analyzed and IC50s are generated using GraphPad Prism 5.

PI3K α = PI3K α (Homo sapiens (Human), UniProt P42336); experiment: PI3K α kinase assay; type: biochemical
PI3K γ = PI3K γ (Homo sapiens (Human), UniProt P48736); experiment: PI3K γ kinase assay; type: biochemical
PI3K β = PI3K β (Homo sapiens (Human), UniProt P42338); experiment: PI3K β kinase assay; type: biochemical; conditions: Table 2
PC3 = PC3 tumor cell line proliferation assay; type: cell-based; conditions: Homo sapiens, PC-3; for IC50: Table 2, in vitro IC50; for EC50: Table 1
Protocol: The assay is performed in a 96 well microtiter plate using Alamar Blue reduction. […] A compound disclosed herein is diluted in Tumor Cell Media and added in a 10 ul volume. […] A volume of 10 uL of Alamar Blue reagent is added to each well and plates are incubated for 3 hours at 37 C and 5% CO2. Alamar Blue fluoresce is read at 560Ex/590Em, and IC50 values are calculated using GraphPad Prism 5.

Chain of mTORC (P42345 1360-2549): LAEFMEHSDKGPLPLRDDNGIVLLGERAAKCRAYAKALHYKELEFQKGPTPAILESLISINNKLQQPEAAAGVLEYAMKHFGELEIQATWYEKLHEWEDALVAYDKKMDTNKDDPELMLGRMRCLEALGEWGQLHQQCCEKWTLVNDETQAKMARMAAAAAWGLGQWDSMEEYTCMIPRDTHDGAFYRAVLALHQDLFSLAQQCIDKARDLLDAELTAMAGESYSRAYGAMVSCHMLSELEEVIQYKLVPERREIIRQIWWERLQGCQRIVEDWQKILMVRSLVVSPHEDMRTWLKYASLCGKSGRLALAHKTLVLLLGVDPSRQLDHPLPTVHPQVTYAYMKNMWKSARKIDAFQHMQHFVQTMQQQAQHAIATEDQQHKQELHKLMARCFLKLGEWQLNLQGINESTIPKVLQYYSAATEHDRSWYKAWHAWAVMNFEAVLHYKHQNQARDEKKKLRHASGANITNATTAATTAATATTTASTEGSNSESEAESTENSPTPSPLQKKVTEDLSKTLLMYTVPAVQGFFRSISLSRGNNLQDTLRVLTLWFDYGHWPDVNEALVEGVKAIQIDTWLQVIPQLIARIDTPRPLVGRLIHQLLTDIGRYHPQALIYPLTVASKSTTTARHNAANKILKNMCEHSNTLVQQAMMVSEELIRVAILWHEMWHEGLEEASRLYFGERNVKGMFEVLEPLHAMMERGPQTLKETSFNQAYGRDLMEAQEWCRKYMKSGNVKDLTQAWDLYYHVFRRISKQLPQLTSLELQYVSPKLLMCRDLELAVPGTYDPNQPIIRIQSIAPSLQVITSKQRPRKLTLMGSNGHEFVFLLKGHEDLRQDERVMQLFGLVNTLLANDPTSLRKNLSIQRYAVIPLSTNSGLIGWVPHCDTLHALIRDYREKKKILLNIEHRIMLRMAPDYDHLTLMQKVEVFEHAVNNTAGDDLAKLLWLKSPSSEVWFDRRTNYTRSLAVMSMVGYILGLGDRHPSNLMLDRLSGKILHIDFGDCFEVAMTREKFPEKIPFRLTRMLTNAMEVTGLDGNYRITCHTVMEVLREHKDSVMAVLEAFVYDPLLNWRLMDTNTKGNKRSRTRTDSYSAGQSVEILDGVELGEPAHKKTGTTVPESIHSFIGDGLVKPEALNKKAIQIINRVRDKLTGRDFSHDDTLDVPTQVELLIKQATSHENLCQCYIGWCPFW
Chain of PI3K α (P42336 whole entry): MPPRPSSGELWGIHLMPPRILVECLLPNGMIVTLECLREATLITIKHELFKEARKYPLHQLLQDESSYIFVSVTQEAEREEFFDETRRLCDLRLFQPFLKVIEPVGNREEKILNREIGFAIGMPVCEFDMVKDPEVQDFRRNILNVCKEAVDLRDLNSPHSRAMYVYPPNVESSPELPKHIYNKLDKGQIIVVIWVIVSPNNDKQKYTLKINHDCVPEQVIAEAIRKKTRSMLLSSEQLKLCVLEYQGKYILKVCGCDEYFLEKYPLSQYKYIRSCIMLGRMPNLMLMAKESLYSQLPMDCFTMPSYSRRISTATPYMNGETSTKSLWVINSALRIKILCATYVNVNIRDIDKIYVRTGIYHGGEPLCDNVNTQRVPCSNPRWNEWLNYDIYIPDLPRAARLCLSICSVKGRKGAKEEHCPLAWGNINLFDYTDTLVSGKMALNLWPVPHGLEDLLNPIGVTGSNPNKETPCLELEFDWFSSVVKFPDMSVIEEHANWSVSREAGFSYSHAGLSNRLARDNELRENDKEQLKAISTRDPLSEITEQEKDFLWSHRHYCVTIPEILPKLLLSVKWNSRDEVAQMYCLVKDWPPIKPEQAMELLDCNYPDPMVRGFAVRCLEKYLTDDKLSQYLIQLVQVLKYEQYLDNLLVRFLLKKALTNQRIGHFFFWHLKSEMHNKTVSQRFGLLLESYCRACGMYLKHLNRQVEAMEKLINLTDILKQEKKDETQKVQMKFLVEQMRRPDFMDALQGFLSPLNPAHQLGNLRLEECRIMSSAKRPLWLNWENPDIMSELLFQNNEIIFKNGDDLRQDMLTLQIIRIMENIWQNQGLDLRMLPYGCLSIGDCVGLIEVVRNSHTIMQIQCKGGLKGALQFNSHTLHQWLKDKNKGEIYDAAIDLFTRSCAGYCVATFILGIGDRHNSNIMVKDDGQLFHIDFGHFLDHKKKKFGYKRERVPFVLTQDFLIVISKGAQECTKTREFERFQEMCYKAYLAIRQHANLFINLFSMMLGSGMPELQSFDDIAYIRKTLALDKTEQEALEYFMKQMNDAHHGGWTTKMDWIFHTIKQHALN
Chain of PI3K α (P27986 whole entry partner): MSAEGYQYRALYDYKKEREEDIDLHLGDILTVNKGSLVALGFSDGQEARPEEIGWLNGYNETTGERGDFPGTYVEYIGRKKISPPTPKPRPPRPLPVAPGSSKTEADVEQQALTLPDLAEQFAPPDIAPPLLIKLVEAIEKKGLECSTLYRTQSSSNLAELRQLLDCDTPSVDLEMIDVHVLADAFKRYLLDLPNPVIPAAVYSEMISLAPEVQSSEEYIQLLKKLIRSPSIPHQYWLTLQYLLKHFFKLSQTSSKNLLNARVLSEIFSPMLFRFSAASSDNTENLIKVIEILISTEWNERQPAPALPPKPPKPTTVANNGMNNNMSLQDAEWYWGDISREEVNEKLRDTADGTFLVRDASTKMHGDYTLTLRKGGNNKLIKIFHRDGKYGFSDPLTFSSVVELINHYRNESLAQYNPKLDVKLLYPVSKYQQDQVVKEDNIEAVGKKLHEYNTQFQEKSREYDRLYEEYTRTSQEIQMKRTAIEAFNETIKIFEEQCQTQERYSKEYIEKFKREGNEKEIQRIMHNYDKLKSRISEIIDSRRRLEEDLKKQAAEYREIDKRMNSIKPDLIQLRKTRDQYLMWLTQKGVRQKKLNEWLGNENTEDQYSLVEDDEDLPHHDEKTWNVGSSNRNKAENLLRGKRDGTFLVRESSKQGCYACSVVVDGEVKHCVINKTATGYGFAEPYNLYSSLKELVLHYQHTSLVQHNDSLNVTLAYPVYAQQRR
Chain of PI3K γ (P48736 whole entry, species assumed): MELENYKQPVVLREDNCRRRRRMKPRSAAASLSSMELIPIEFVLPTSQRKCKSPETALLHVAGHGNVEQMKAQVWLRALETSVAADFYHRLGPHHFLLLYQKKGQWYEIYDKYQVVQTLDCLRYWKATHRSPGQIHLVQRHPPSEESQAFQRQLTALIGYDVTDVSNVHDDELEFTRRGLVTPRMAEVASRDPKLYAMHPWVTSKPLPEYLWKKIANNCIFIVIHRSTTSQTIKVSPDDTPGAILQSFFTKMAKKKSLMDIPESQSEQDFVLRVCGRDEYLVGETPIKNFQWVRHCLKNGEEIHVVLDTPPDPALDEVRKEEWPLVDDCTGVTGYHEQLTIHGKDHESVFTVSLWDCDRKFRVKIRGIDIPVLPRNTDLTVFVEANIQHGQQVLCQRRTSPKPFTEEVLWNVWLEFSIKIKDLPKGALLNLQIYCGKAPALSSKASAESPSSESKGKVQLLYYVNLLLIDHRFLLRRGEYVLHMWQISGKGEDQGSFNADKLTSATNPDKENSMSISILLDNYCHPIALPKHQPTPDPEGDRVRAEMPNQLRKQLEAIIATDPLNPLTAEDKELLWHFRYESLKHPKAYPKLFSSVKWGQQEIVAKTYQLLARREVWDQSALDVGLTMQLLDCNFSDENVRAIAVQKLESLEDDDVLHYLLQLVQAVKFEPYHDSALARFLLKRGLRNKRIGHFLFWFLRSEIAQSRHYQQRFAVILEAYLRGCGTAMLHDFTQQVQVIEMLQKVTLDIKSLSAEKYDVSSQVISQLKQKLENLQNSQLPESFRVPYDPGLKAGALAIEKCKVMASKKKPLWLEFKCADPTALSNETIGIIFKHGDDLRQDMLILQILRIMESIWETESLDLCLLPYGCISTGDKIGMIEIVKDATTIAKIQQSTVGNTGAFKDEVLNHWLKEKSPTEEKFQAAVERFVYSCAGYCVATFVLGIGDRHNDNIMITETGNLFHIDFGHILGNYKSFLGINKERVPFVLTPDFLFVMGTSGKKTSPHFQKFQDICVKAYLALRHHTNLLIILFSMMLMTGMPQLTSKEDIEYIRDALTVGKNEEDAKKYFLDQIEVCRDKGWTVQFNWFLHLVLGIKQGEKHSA

Compound | IC50 (PI3K δ; Table 2) [nM] | IC50 (mTORC) [nM] | IC50 (PI3K α; Table 2) [nM] | IC50 (PI3K γ; Table 2) [nM] | IC50 (PI3K β) [nM] | IC50 (PC3) [nM] | further results
Nc1ncnc2c1c(-c1cc3cccc(Cl)c3[nH]1)nn2C1CCOCC1 [Compound 51] | < 500 | < 50 | > 500 | < 500 | > 500 |  | 
Nc1ncnc2c1c(-c1cc3ccc(O)cc3[nH]1)nn2C1CCOCC1 [Compound 60] |  | < 100 | > 500 | < 100 | > 500 |  | 
CN1CCN(C2CCC(n3nc(-c4cc5cc(O)ccc5[nH]4)c4c(N)ncnc43)CC2)CC1 (stereo not shown) [Compound 58] |  | > 500 |  | > 500 | > 500 |  | IC50 (PI3K α): > 500 nM
Nc1ncnc2c1c(-c1cc3cc(O)ccc3[nH]1)nn2C1CCC(N2CCOCC2)CC1 (stereo not shown) [Compound 57] |  | < 25 | > 500 | > 500 | > 500 |  | 
Nc1ncnc2c1c(-c1cc3cc(O)cc(Cl)c3[nH]1)nn2C1CCOCC1 [Compound 68] | < 25 | < 5 | < 500 | < 50 | > 500 |  | 
CC(=O)N1CCC(n2nc(-c3cc4cc(O)ccc4[nH]3)c3c(N)ncnc32)CC1 [Compound 30] | > 500 | < 25 |  |  | > 500 | > 500 | IC50 (PI3K α): > 500 nM
CC(=O)N1CCC(n2nc(-c3cc4c(Cl)ccc(O)c4[nH]3)c3c(N)ncnc32)CC1 [Compound 69] |  | < 5 | > 500 | > 500 | > 500 |  | IC50 (PI3K δ): < 500 nM
COc1cc(Cl)c2[nH]c(-c3nn(C4CCOCC4)c4ncnc(N)c34)cc2c1 [Compound 67] | > 500 | > 500 | > 500 | > 500 | > 500 |  | 
CN1CCN(C2CC(n3nc(-c4cc5cc(O)ccc5[nH]4)c4c(N)ncnc43)C2)CC1 (stereo not shown) [Compound 52] | < 500 | < 500 |  | > 500 | > 500 |  | IC50 (PI3K α): > 500 nM
Nc1nc2cc(-c3cn(C4CCOCC4)c4ncnc(N)c34)ccc2o1 [Compound 9] |  |  |  |  |  |  | EC50 (PC3): < 100 nM
Nc1ncnc2c1c(-c1cc3cc(O)ccc3[nH]1)nn2C1CCN(C(=O)C2CC2)CC1 [Compound 31] | < 500 | < 25 |  |  | > 500 | > 500 | IC50 (PI3K α): > 500 nM
CNC(=O)CCn1nc(-c2cc3cc(O)ccc3[nH]2)c2c(N)ncnc21 [Compound 43] | > 500 | > 500 | > 500 |  | > 500 |  | 
Nc1ncnc2c1c(-c1cc3cc(O)ccc3[nH]1)nn2Cc1cccnc1 [Compound 38] | > 500 | < 500 | > 500 |  |  | > 500 | IC50 (PI3K γ): > 500 nM
CC(C)n1nc(-c2cc3cc(Cl)ccc3[nH]2)c2c(N)ncnc21 [Compound 17] |  |  |  |  |  | > 500 | 
CC(C)n1nc(-c2cc3ccccc3n2C)c2c(N)ncnc21 [Compound 6] |  |  |  |  |  | > 500 | 
CC(C)n1cc(-c2ccc3oc(N)nc3c2)c2c(N)ncnc21 [Compound 8] |  |  |  |  |  |  | EC50 (PC3): < 100 nM
CC(C)n1nc(-c2cc3cccc(O)c3[nH]2)c2c(N)ncnc21 [Compound 11] |  |  |  |  |  | < 50 | 
Nc1ncnc2c1c(-c1cc3cc(O)ccc3[nH]1)nn2C1CCCCC1 [Compound 26] |  |  |  |  |  | < 500 | 
COc1cccc2cc(-c3nn(C4CCN(C(=O)C5CC5)CC4)c4ncnc(N)c34)[nH]c12 [Compound 66] | > 500 | > 500 | > 500 | > 500 | > 500 |  | 
CC(C)n1nc(-c2cc3ccccc3[nH]2)c2c(N)ncnc21 [Compound 7] |  |  |  |  |  | > 500 | 

Compound | IC50 (PI3K δ; Table 2) [nM] | IC50 (mTORC) [nM] | IC50 (PI3K α; Table 2) [nM] | IC50 (PI3K γ; Table 2) [nM] | IC50 (PI3K β) [nM] | IC50 (PC3) [nM] | further results
Nc1nc2cc(-c3nn(C4CCC(N5CCOCC5)CC4)c4ncnc(N)c34)ccc2o1 (stereo not shown) [Compound 6] |  |  |  |  |  |  | EC50 (PC3): < 1000 nM
COc1ccc2cc(-c3nn(C(C)C)c4ncnc(N)c34)[nH]c2c1 [Compound 8] |  |  |  |  |  | > 500 | 
CC(C)n1nc(-c2cc3cc(O)cc(Cl)c3[nH]2)c2c(N)ncnc21 [Compound 15] |  |  |  |  |  | < 50 | 
CC(C)n1nc(-c2ccc3nc(N)oc3c2)c2c(N)ncnc21 [Compound 4] |  |  |  |  |  |  | EC50 (PC3): < 10000 nM
Nc1nc2cc(-c3nn(C4CCOCC4)c4ncnc(N)c34)ccc2o1 [Compound 5] |  |  |  |  |  |  | EC50 (PC3): < 100 nM
CC(C)n1nc(-c2cc3cc(O)c(Cl)cc3[nH]2)c2c(N)ncnc21 [Compound 32] | > 500 | < 500 |  | > 500 |  | > 500 | IC50 (PI3K α): > 500 nM
CC(C)n1nc(-c2cc3ccc(C(N)=O)cc3[nH]2)c2c(N)ncnc21 [Compound 25] |  |  |  |  |  | > 500 | 
CC(=O)Nc1noc2cc(-c3nn(C(C)C)c4ncnc(N)c34)ccc12 [Compound 11] |  |  |  |  |  |  | EC50 (PC3): > 10000 nM
CNC(=O)Cn1nc(-c2cc3cc(O)ccc3[nH]2)c2c(N)ncnc21 [Compound 35] | > 500 | > 500 | > 500 | > 500 |  |  | 
CC(C)N1CCC(n2nc(-c3cc4cccc(O)c4[nH]3)c3c(N)ncnc32)CC1 [Compound 64] | < 500 | < 25 | > 500 | < 500 | > 500 |  | 
Cc1nccn1CCn1nc(-c2cc3cc(O)ccc3[nH]2)c2c(N)ncnc21 [Compound 44] |  | < 100 | > 500 |  | > 500 |  | IC50 (PI3K δ): > 500 nM
CC(C)N1CCC(n2nc(-c3cc4c(Cl)ccc(O)c4[nH]3)c3c(N)ncnc32)CC1 [Compound 71] |  | < 100 | > 500 | > 500 | > 500 |  | IC50 (PI3K δ): > 500 nM
COCCn1nc(-c2cc3cc(O)ccc3[nH]2)c2c(N)ncnc21 [Compound 40] |  | < 100 | > 500 | > 500 |  | > 500 | IC50 (PI3K δ): > 500 nM
CC(C)n1nc(-c2cc3ccc(O)cc3[nH]2)c2c(N)ncnc21 [Compound 21] |  |  |  |  |  | > 500 | 
Nc1ncnc2c1c(-c1cc3cccc(O)c3[nH]1)nn2C1CCOCC1 [Compound 62] | < 100 | < 5 | > 500 | > 500 | > 500 |  | 
CC(=O)N1CCC(n2nc(-c3ccc4oc(N)nc4c3)c3c(N)ncnc32)CC1 [Compound 7] |  |  |  |  |  |  | EC50 (PC3): < 10000 nM
Nc1ncnc2c1c(-c1cc3cc(O)ccc3[nH]1)nn2C1CCCC1 [Compound 12] |  |  |  |  |  | < 50 | 
COc1ccc2cc(-c3nn(C4CCOCC4)c4ncnc(N)c34)[nH]c2c1 [Compound 59] |  | > 500 | > 500 | > 500 | > 500 |  | 
Nc1ncnc2c1c(-c1cc3cc(O)ccc3[nH]1)nn2C1CCOCC1 [Compound 42] | < 100 | < 5 |  |  | > 500 | > 500 | IC50 (PI3K α): > 500 nM
Nc1ncnc2c1c(-c1cc3cc(O)ccc3[nH]1)nn2C1CC(O)C1 (stereo not shown) [Compound 54] |  | < 25 | > 500 | > 500 | > 500 |  | 

Compound | IC50 (PI3K δ; Table 2) [nM] | IC50 (mTORC) [nM] | IC50 (PI3K α; Table 2) [nM] | IC50 (PI3K γ; Table 2) [nM] | IC50 (PI3K β) [nM] | IC50 (PC3) [nM] | further results
CC(C)n1nc(-c2ccc3c(N)noc3c2)c2c(N)ncnc21 [Compound 12] |  |  |  |  |  |  | EC50 (PC3): > 10000 nM
COc1cc(Cl)c2[nH]c(-c3nn(C(C)C)c4ncnc(N)c34)cc2c1 [Compound 13] |  |  |  |  |  | > 500 | 
CC(C)N1CCC(n2nc(-c3cc4cc(O)ccc4[nH]3)c3c(N)ncnc32)CC1 [Compound 55] |  | < 500 | > 500 | > 500 | > 500 |  | 
CC(C)n1nc(-c2cc3c(Cl)ccc(O)c3[nH]2)c2c(N)ncnc21 [Compound 39] | > 500 | < 10 | > 500 | > 500 |  | > 500 | 
CC(C)n1nc(-c2ccc3onc(N)c3c2)c2c(N)ncnc21 [Compound 10] |  |  |  |  |  |  | EC50 (PC3): > 10000 nM
CC(C)n1nc(-c2cc3c(O)cccc3[nH]2)c2c(N)ncnc21 [Compound 37] | < 500 | > 500 | < 500 | < 500 |  |  | 
Nc1ncnc2c1c(-c1cc3cc(O)ccc3[nH]1)nn2CCN1CCOCC1 [Compound 33] | > 500 | < 500 | > 500 | > 500 |  | > 500 | 
Nc1ncnc2c1c(-c1cc3cc(O)ccc3[nH]1)nn2C1CC(=O)C1 [Compound 53] |  | < 100 | > 500 | > 500 | > 500 |  | 
CC(C)n1nc(-c2cc3cc(O)cc(F)c3[nH]2)c2c(N)ncnc21 [Compound 16] |  |  |  |  |  | < 500 | 
CC(C)N1CCC(n2nc(-c3cc4cc(O)cc(Cl)c4[nH]3)c3c(N)ncnc32)CC1 [Compound 56] |  | > 500 | > 500 | > 500 | > 500 |  | 
CC(C)n1nc(-c2cc3c(Cl)cccc3[nH]2)c2c(N)ncnc21 [Compound 9] |  |  |  |  |  | > 500 | 
CC(C)n1nc(-c2cc3cc(O)ccc3[nH]2)c2c(N)nccc21 [Compound 45] |  | > 500 |  |  |  |  | 
Nc1ncnc2c1c(-c1cc3cccc(O)c3[nH]1)nn2C1CCCC1 [Compound 36] | < 500 | < 10 | > 500 | < 100 |  | < 100 | 
CC(C)n1nc(-c2cc3ccc(C#N)cc3[nH]2)c2c(N)ncnc21 [Compound 24] |  |  |  |  |  | > 500 | 
Nc1ncnc2c1c(-c1cc3cc(O)ccc3[nH]1)nn2C1CCC1 [Compound 27] |  |  |  |  |  | < 500 | 
COc1ccc2[nH]c(-c3nn(C(C)C)c4ncnc(N)c34)cc2c1 [Compound 5] |  |  |  |  |  | > 500 | 
CCOC(=O)Cn1nc(-c2cc3cc(O)ccc3[nH]2)c2c(N)ncnc21 [Compound 28] | > 500 | < 500 | > 500 |  | > 500 | > 500 | 
Nc1ncnc2c1c(-c1cc3cc(O)ccc3[nH]1)nn2CC(=O)N1CCOCC1 [Compound 34] | > 500 | > 500 | > 500 | > 500 |  |  | 
CC(=O)Nc1nc2cc(-c3nn(C(C)C)c4ncnc(N)c34)ccc2o1 [Compound 2] |  |  |  |  |  |  | EC50 (PC3): < 1000 nM
COc1cc2cc(-c3nn(C(C)C)c4ncnc(N)c34)[nH]c2cc1Cl [Compound 29] |  | > 500 |  |  |  |  | 
